Measured values taken from paper PMC11229439 (GeroScience, 2023).

Target: T1, cystathionine γ-lyase (CGL) (Rattus norvegicus, UniProt P18757)
T1 construct: gene Cth
Experiment: homoserine γ-elimination assay (2-oxobutanoate), Dixon plot
Type: biochemical

T1 sequence (P18757 whole entry): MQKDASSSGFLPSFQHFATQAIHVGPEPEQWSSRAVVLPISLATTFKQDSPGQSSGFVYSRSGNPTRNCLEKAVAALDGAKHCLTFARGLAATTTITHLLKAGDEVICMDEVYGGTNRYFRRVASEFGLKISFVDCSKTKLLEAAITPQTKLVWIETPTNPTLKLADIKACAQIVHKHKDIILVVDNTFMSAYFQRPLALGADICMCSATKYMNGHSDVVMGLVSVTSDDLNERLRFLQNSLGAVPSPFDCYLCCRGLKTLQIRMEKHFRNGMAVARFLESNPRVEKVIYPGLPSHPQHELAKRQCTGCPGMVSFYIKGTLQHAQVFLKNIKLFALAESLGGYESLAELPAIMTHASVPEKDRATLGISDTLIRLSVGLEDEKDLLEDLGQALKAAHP

## N[C@@H](CS)C(=O)O [cysteine]
  Ki: 520 µM
